{
  "source": "patent US12268694B2",
  "about": "“Combination pharmaceutical agents as RSV inhibitors” (Enanta Pharmaceuticals, Inc., priority 2017, dated 2025)",
  "data": [
    {"tested_on": "genotype A, \"Long\" strain RSV", "test": "RSV-A assay: CPE protection in HEp-2 cells, ATPlite readout", "format": "cell-based, human respiratory syncytial virus", "conditions": "HEp-2 cells, RSV-A Long strain, ATPlite readout; read-out: Human RSV-A (“Long” strain) EC50", "text": "(§1) HEp-2 cells, (originally derived from tumors grown in irradiated-cortisonised weanling rats that had been injected with epidermoid carcinoma tissue from a person's larynx, but later found to be indistinguishable from HeLa cells by PCR DNA analysis), were used for the culturing of genotype A, “Long” strain RSV. Flasks were inoculated with RSV and viral stocks were collected once cytopathic effect (CPE) was greater than 90%. Viral stocks in 25% sucrose media were snap frozen using liquid nitrogen to increase viral stability. Viral stock titers were quantified by tissue culture infectious dose 50% (TCID50) using 8,000 cells per well and 3-fold viral dilutions across a 96-well plate, cultured for 4 days. Viral stock titers were also quantified by a plaque forming unit assay, as described elsewhere.\n(§2) Following extensive parameter testing, the final assay is run as follows: HEp-2 cells are seeded into the inner 60 wells of a 96-well plate at 8,000 cells per well in a volume of 50 μL using Growth Media (DMEM without phenol red, 1% L-Glut, 1% Penn/Strep, 1% nonessential amino acids, 10% heat-inactivated FBS). 2-fold serial dilutions of control and test compounds are added to the wells in duplicate in a total volume of 25 μL. Viral stock is then added to the wells at a multiplicity of infection (MOI) of 0.1 in a volume of 25 μL, bringing the total volume of each well to 100 μL. The MOI is calculated using the PFU/mL, or TCID50 if unavailable. Each 96-well plate has a control column of 6 wells with cells and virus but no compound (negative control, max CPE), a column with cells but no compound or virus (positive control, minimum CPE), and a column with no cells or virus or compound (background plate/reagent control). The control wells with cells but no virus are given an additional 25 μL of growth media containing an equal quantity of sucrose as those wells receiving the viral stock in order to keep consistent in media and volume conditions. The outer wells of the plate are filled with 125 μL of moat media (DMEM, 1% Penn/Strep) to act as a thermal and evaporative moat around the test wells. Following a 5-day incubation period, the plates are read using ATPlite (50 μL added per well), which quantifies the amount of ATP (a measure of cell health) present in each well. Assay plates are read using the Envision luminometer. In parallel, cytotoxicity is examined on an additional 96-well plate treated in an identical manner, but substituting the 25 μL of viral stock for 25 μL of growth media. […] EC50 ranges are as follows: A <0.4 μM; B 0.4-0.8 μM; C >0.8 μM and CC50 ranges are as follows: A >50 μM; B 10-50 μM; C <10 μM.", "units": {"EC50": "nM"}, "values": [
      {"smiles": "O=C1Nc2ccccc2C(c2ccccc2)=NC1Nc1nnc(-c2c(F)cc(F)cc2N2CCOCC2)o1", "note": "(stereo not drawn) [Example 170]", "EC50": "> 800"},
      {"smiles": "O=C1Nc2ccccc2C(c2ccccc2)=NC1Nc1nnc(-c2c(F)cc(F)cc2N2CCOCC2)o1", "note": "(stereo not drawn) [Example 171]", "EC50": "> 800"}
    ]},
    {"tested_on": "genotype A, \"Long\" strain RSV", "test": "RSV-A assay: CPE protection in HEp-2 cells, ATPlite readout", "format": "cell-based, human respiratory syncytial virus", "conditions": "human respiratory syncytial virus, HEp-2, read-out: Human RSV-A (“Long” strain) EC50", "text": "as §1, §2", "units": {"EC50": "nM"}, "values": [
      {"smiles": "Cn1cc(N2CCOCC2)c(-c2nnc(N[C@H]3N=C(c4ccccc4)c4ccccc4NC3=O)o2)n1", "note": "[Example 164]", "EC50": "< 400"},
      {"smiles": "O=C1Nc2ccccc2C(c2ccccc2)=N[C@@H]1Nc1nnc(-c2cnc(N3CCOCC3)nc2)o1", "note": "[Example 165]", "EC50": "400 to 800"},
      {"smiles": "O=C1Nc2ccccc2C(c2ccccc2)=N[C@@H]1Nc1nnc(-c2cnc(N3CC4CCC(C3)O4)nc2)o1", "note": "[Example 166]", "EC50": "> 800"},
      {"smiles": "O=C1Nc2ccccc2C(c2ccccc2)=N[C@@H]1Nc1nnc(-c2cnc(C3CC3)nc2N2CCOCC2)o1", "note": "[Example 167]", "EC50": "< 400"},
      {"smiles": "O=C1Nc2ccccc2C(c2ccccc2)=N[C@@H]1Nc1nnc(-c2cnc(-n3cccn3)nc2N2CCOCC2)o1", "note": "[Example 172]", "EC50": "> 800"},
      {"smiles": "O=C1Nc2ccccc2C(c2ccccc2)=N[C@@H]1Nc1nnc(-c2cnc(-n3cncn3)nc2N2CCOCC2)o1", "note": "[Example 173]", "EC50": "> 800"},
      {"smiles": "N#Cc1cnc(N2CCOCC2)c(-c2nnc(N[C@H]3N=C(c4ccccc4)c4ccccc4NC3=O)o2)c1", "note": "[Example 174]", "EC50": "< 400"},
      {"smiles": "CCc1nc(N2CCOCC2)c(-c2nnc(N[C@H]3N=C(c4ccccc4)c4ccccc4NC3=O)o2)cc1C#N", "note": "[Example 176]", "EC50": "< 400"},
      {"smiles": "Cn1ncc(-c2nnc(N[C@H]3N=C(c4ccccc4)c4ccccc4NC3=O)o2)c1N1CCOCC1", "note": "[Example 177]", "EC50": "> 800"},
      {"smiles": "Cn1ncc(N2CCOCC2)c1-c1nnc(N[C@H]2N=C(c3ccccc3)c3ccccc3NC2=O)o1", "note": "[Example 178]", "EC50": "400 to 800"},
      {"smiles": "O=C1Nc2ccccc2C(c2ccccc2)=N[C@@H]1Nc1nnc(-c2sc3ncccc3c2N2CCOCC2)o1", "note": "[Example 180]", "EC50": "< 400"},
      {"smiles": "Cn1cc(-c2nnc(N[C@H]3N=C(c4ccccc4)c4ccccc4NC3=O)o2)c(N2CCOCC2)n1", "note": "[Example 181]", "EC50": "< 400"},
      {"smiles": "O=C1Nc2ccccc2C(c2ccccc2)=N[C@@H]1Nc1nnc(-c2sc(Br)cc2N2CCOCC2)o1", "note": "[Example 182]", "EC50": "< 400"},
      {"smiles": "N#Cc1ccc(-c2nnc(NC3N=C(c4ccccc4)c4ccccc4NC3=O)o2)s1", "note": "(stereo not drawn) [Example 183]", "EC50": "< 400"},
      {"smiles": "O=C1Nc2ccccc2C(c2ccccc2)=NC1Nc1nnc(-c2ccc(N3CCCC3)cc2)o1", "note": "(stereo not drawn) [Example 184]", "EC50": "400 to 800"},
      {"smiles": "COc1cnc(-c2nnc(NC3N=C(c4ccccc4)c4ccccc4NC3=O)o2)c(F)c1", "note": "(stereo not drawn) [Example 185]", "EC50": "> 800"},
      {"smiles": "Cn1nnc(-c2ccc(-c3nnc(NC4N=C(c5ccccc5)c5ccccc5NC4=O)o3)cc2)n1", "note": "(stereo not drawn) [Example 186]", "EC50": "> 800"},
      {"smiles": "Cc1nc2ccc(-c3nnc(NC4N=C(c5ccccc5)c5ccccc5NC4=O)o3)cc2s1", "note": "(stereo not drawn) [Example 187]", "EC50": "400 to 800"},
      {"smiles": "CC(C)c1nnc(NC2N=C(c3ccccc3)c3ccccc3NC2=O)o1", "note": "(stereo not drawn) [Example 188]", "EC50": "> 800"},
      {"smiles": "CC(C)(C)c1nnc(NC2N=C(c3ccccc3)c3ccccc3NC2=O)o1", "note": "(stereo not drawn) [Example 189]", "EC50": "> 800"},
      {"smiles": "CCCc1nnc(NC2N=C(c3ccccc3)c3ccccc3NC2=O)o1", "note": "(stereo not drawn) [Example 190]", "EC50": "> 800"},
      {"smiles": "COCc1nnc(NC2N=C(c3ccccc3)c3ccccc3NC2=O)o1", "note": "(stereo not drawn) [Example 191]", "EC50": "> 800"},
      {"smiles": "O=C1Nc2ccccc2C(c2ccccc2)=NC1Nc1nnc(CCC(F)(F)F)o1", "note": "(stereo not drawn) [Example 192]", "EC50": "> 800"},
      {"smiles": "N#CCCc1nnc(NC2N=C(c3ccccc3)c3ccccc3NC2=O)o1", "note": "(stereo not drawn) [Example 193]", "EC50": "> 800"},
      {"smiles": "CS(=O)(=O)Cc1nnc(NC2N=C(c3ccccc3)c3ccccc3NC2=O)o1", "note": "(stereo not drawn) [Example 194]", "EC50": "> 800"},
      {"smiles": "CC1(c2nnc(NC3N=C(c4ccccc4)c4ccccc4NC3=O)o2)CC1", "note": "(stereo not drawn) [Example 195]", "EC50": "> 800"},
      {"smiles": "O=C1Nc2ccccc2C(c2ccccc2)=NC1Nc1nnc(C2CCC2)o1", "note": "(stereo not drawn) [Example 196]", "EC50": "> 800"},
      {"smiles": "O=C1Nc2ccccc2C(c2ccccc2)=NC1Nc1nnc(C2CCCC2)o1", "note": "(stereo not drawn) [Example 197]", "EC50": "> 800"},
      {"smiles": "O=C1Nc2ccccc2C(c2ccccc2)=NC1Nc1nnc([C@H]2CCCO2)o1", "note": "(stereo partly drawn) [Example 198]", "EC50": "> 800"},
      {"smiles": "O=C1Nc2ccccc2C(c2ccccc2)=NC1Nc1nnc(CCc2ccccc2)o1", "note": "(stereo not drawn) [Example 199]", "EC50": "> 800"},
      {"smiles": "Cc1nc(-c2nnc(NC3N=C(c4ccccc4)c4ccccc4NC3=O)o2)ccc1C#N", "note": "(stereo not drawn) [Example 200]", "EC50": "400 to 800"},
      {"smiles": "CN1C(=O)C(Nc2nnc(-c3ccc(F)cc3)o2)N=C(c2ccccc2)c2ccccc21", "note": "(stereo not drawn) [Example 201]", "EC50": "> 800"},
      {"smiles": "O=C1Nc2ccccc2C(c2ccccc2)=NC1Nc1nnc(-c2ccc(-n3ccc(C(F)(F)F)n3)cc2)o1", "note": "(stereo not drawn) [Example 202]", "EC50": "> 800"},
      {"smiles": "O=C1Nc2ccccc2C(c2ccccc2)=NC1Nc1nnc(CC(F)(F)F)o1", "note": "(stereo not drawn) [Example 203]", "EC50": "> 800"},
      {"smiles": "O=C1Nc2ccccc2C(c2ccccc2)=NC1Nc1nnc(C2(F)CC2)o1", "note": "(stereo not drawn) [Example 204]", "EC50": "> 800"},
      {"smiles": "CC1(C)C[C@@H]1c1nnc(NC2N=C(c3ccccc3)c3ccccc3NC2=O)o1", "note": "(stereo partly drawn) [Example 205]", "EC50": "> 800"},
      {"smiles": "CC1(C)CC(c2nnc(NC3N=C(c4ccccc4)c4ccccc4NC3=O)o2)C1", "note": "(stereo not drawn) [Example 206]", "EC50": "> 800"},
      {"smiles": "O=C1Nc2ccccc2C(c2ccccc2)=NC1Nc1nnc([C@@H]2CCCO2)o1", "note": "(stereo partly drawn) [Example 207]", "EC50": "> 800"},
      {"smiles": "CC(C)(Cc1ccccc1)c1nnc(NC2N=C(c3ccccc3)c3ccccc3NC2=O)o1", "note": "(stereo not drawn) [Example 208]", "EC50": "> 800"},
      {"smiles": "CN(c1nnc(-c2ccc(F)cc2)o1)C1N=C(c2ccccc2)c2ccccc2NC1=O", "note": "(stereo not drawn) [Example 209]", "EC50": "> 800"},
      {"smiles": "CN1CCN(c2ccc(-c3nnc(NC4N=C(c5ccccc5)c5ccccc5NC4=O)o3)cc2)CC1", "note": "(stereo not drawn) [Example 210]", "EC50": "> 800"},
      {"smiles": "O=C1Nc2ccccc2C(c2ccccc2)=NC1Nc1nnc(-c2cccc(-n3ccnc3)c2)o1", "note": "(stereo not drawn) [Example 212]", "EC50": "> 800"},
      {"smiles": "CC(C)(O)c1nnc(NC2N=C(c3ccccc3)c3ccccc3NC2=O)o1", "note": "(stereo not drawn) [Example 213]", "EC50": "> 800"},
      {"smiles": "O=C1Nc2ccccc2C(c2ccccc2)=NC1Nc1nnc(C2CC(F)(F)C2)o1", "note": "(stereo not drawn) [Example 214]", "EC50": "> 800"},
      {"smiles": "O=C1Nc2ccccc2C(c2ccccc2)=NC1Nc1nnc(C2CCOC2)o1", "note": "(stereo not drawn) [Example 215]", "EC50": "> 800"},
      {"smiles": "O=C1Nc2ccccc2C(c2ccccc2)=NC1Nc1nnc(-c2ccc(-n3cncn3)c(F)c2)o1", "note": "(stereo not drawn) [Example 216]", "EC50": "400 to 800"},
      {"smiles": "Cc1cc(-c2nnc(NC3N=C(c4ccccc4)c4ccccc4NC3=O)o2)ccc1-n1cncn1", "note": "(stereo not drawn) [Example 217]", "EC50": "400 to 800"},
      {"smiles": "Cc1cc(-n2cncn2)ccc1-c1nnc(NC2N=C(c3ccccc3)c3ccccc3NC2=O)o1", "note": "(stereo not drawn) [Example 218]", "EC50": "> 800"},
      {"smiles": "COc1cc(-c2nnc(NC3N=C(c4ccccc4)c4ccccc4NC3=O)o2)ccc1-n1cnc(C)c1", "note": "(stereo not drawn) [Example 219]", "EC50": "> 800"},
      {"smiles": "O=C1Nc2ccccc2C(c2ccccc2)=NC1Nc1nnc(-c2ccc(OC3CCOCC3)cc2)o1", "note": "(stereo not drawn) [Example 220]", "EC50": "> 800"},
      {"smiles": "O=C1Nc2ccccc2C(c2ccccc2)=NC1Nc1nnc(C2CC3(CCNCC3)C2)o1", "note": "(stereo not drawn) [Example 222]", "EC50": "> 800"},
      {"smiles": "CC1(c2nnc(NC3N=C(c4ccccc4)c4ccccc4NC3=O)o2)CCNC1", "note": "(stereo not drawn) [Example 223]", "EC50": "> 800"},
      {"smiles": "O=C1Nc2ccccc2C(c2ccccc2)=NC1Nc1nnc(-c2ccc(-n3cncn3)nc2)o1", "note": "(stereo not drawn) [Example 225]", "EC50": "> 800"},
      {"smiles": "O=C1Nc2ccccc2C(c2ccccc2)=NC1Nc1nnc(-c2ccccc2-c2ccncc2)o1", "note": "(stereo not drawn) [Example 226]", "EC50": "> 800"},
      {"smiles": "O=C1Nc2ccccc2C(c2ccccc2)=NC1Nc1nnc([C@@H]2CCCN2C2CCNCC2)o1", "note": "(stereo partly drawn) [Example 227]", "EC50": "> 800"}
    ]}
  ]
}
